From ChEMBL document CHEMBL1201862, “PubChem BioAssay data set” (2004)
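Exposure lasted 48 hours, with cells grown in 96-well plates and compounds tested at five concentrations. Here, GI50 denotes the concentration required for 50% inhibition of growth.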 Calls of active or inactive are those of the source. No stated cut-off is given here; in the data, active = GI50 up to about 1.1 µM and inactive = higher.

Assays:
Assay in all cases: NCI tumour cell line growth inhibition, 48 h
U-251 = tested on: U-251
DMS-273 = tested on: DMS-273
HT-29 = tested on: HT-29
SF-539 = tested on: SF-539
HCC 2998 = tested on: HCC 2998
LXFL 529 = tested on: LXFL 529
IGROV-1 = tested on: IGROV-1
SK-MEL-28 = tested on: SK-MEL-28
M19-MEL = tested on: M19-MEL
HOP-92 = tested on: HOP-92
SK-MEL-5 = tested on: SK-MEL-5
DMS-114 = tested on: DMS-114
HL-60 = tested on: HL-60
A498 = tested on: A498
UO-31 = tested on: UO-31
SNB-75 = tested on: SNB-75
SK-OV-3 = tested on: SK-OV-3
CCRF-CEM = tested on: CCRF-CEM
DLD-1 = tested on: DLD-1
EKVX = tested on: EKVX
NCI-H226 = tested on: NCI-H226
SW-620 = tested on: SW-620
SNB-19 = tested on: SNB-19
OVCAR-4 = tested on: OVCAR-4
SF-268 = tested on: SF-268
UACC-62 = tested on: UACC-62
SF-295 = tested on: SF-295
K562 = tested on: K562
HCT-116 = tested on: HCT-116
NCI-H23 = tested on: NCI-H23
UACC-257 = tested on: UACC-257
CAKI-1 = tested on: CAKI-1
KM-20L2 = tested on: KM-20L2
OVCAR-3 = tested on: OVCAR-3
NCI-H522 = tested on: NCI-H522
HCT-15 = tested on: HCT-15
RPMI-8226 = tested on: RPMI-8226
NCI-H460 = tested on: NCI-H460
SK-MEL-2 = tested on: SK-MEL-2
KM12 = tested on: KM12
Malme-3M = tested on: Malme-3M
M14 = tested on: M14
786-0 = tested on: 786-0
TK-10 = tested on: TK-10
COLO 205 = tested on: COLO 205
OVCAR-8 = tested on: OVCAR-8
A549 = tested on: A549
HOP-62 = tested on: HOP-62
ACHN = tested on: ACHN
MOLT-4 = tested on: MOLT-4
XF498 = tested on: XF498
RXF 631 = tested on: RXF 631
OVCAR-5 = tested on: OVCAR-5
SR = tested on: SR
RXF 393 = tested on: RXF 393
HOP-18 = tested on: HOP-18
SN12C = tested on: SN12C
SNB-78 = tested on: SNB-78

O=C1C(=Cc2ccc(F)cc2)C(=O)c2ccccc21
GI50 (U-251): > 100 µM (inactive)
GI50 (DMS-273): > 100 µM (inactive)
GI50 (HT-29): > 100 µM (inactive)
GI50 (SF-539): > 100 µM (inactive)
GI50 (HCC 2998): > 100 µM (inactive)
GI50 (LXFL 529): > 100 µM (inactive)
GI50 (IGROV-1): > 100 µM (inactive)
GI50 (SK-MEL-28): > 100 µM (inactive)
GI50 (M19-MEL): 96.2 µM (inactive)
GI50 (HOP-92): 0.925 µM (active)
GI50 (SK-MEL-5): > 100 µM (inactive)
GI50 (DMS-114): > 100 µM (inactive)
GI50 (HL-60): 30.5 µM (inactive)
GI50 (A498): > 100 µM (inactive)
GI50 (UO-31): > 100 µM (inactive)
GI50 (SNB-75): 24.9 µM (inactive)
GI50 (SK-OV-3): > 100 µM (inactive)
GI50 (CCRF-CEM): 41.2 µM (inactive)
GI50 (DLD-1): > 100 µM (inactive)
GI50 (EKVX): > 100 µM (inactive)
GI50 (NCI-H226): > 100 µM (inactive)
GI50 (SW-620): > 100 µM (inactive)
GI50 (SNB-19): > 100 µM (inactive)
GI50 (OVCAR-4): > 100 µM (inactive)
GI50 (SF-268): > 100 µM (inactive)
GI50 (UACC-62): > 100 µM (inactive)
GI50 (SF-295): > 100 µM (inactive)
GI50 (K562): > 100 µM (inactive)
GI50 (HCT-116): > 100 µM (inactive)
GI50 (NCI-H23): > 100 µM (inactive)
GI50 (UACC-257): > 100 µM (inactive)
GI50 (CAKI-1): > 100 µM (inactive)
GI50 (KM-20L2): > 100 µM (inactive)
GI50 (OVCAR-3): > 100 µM (inactive)
GI50 (NCI-H522): > 100 µM (inactive)
GI50 (HCT-15): > 100 µM
GI50 (RPMI-8226): 49.8 µM (inactive)
GI50 (NCI-H460): > 100 µM (inactive)
GI50 (SK-MEL-2): > 100 µM (inactive)
GI50 (KM12): > 100 µM (inactive)
GI50 (Malme-3M): > 100 µM (inactive)
GI50 (M14): > 100 µM (inactive)
GI50 (786-0): > 100 µM (inactive)
GI50 (TK-10): > 100 µM (inactive)
GI50 (COLO 205): > 100 µM (inactive)
GI50 (OVCAR-8): > 100 µM (inactive)
GI50 (A549): > 100 µM (inactive)
GI50 (HOP-62): > 100 µM (inactive)
GI50 (ACHN): > 100 µM (inactive)
GI50 (MOLT-4): 42 µM (inactive)
GI50 (XF498): > 100 µM (inactive)
GI50 (RXF 631): > 100 µM (inactive)
GI50 (OVCAR-5): > 100 µM (inactive)

CN(C)/N=N/c1cccc(C(N)=O)c1
GI50 (U-251): > 100 µM (inactive)
GI50 (DMS-273): > 100 µM (inactive)
GI50 (HT-29): > 100 µM (inactive)
GI50 (SF-539): > 100 µM (inactive)
GI50 (HCC 2998): > 100 µM (inactive)
GI50 (LXFL 529): > 100 µM (inactive)
GI50 (SR): > 100 µM (inactive)
GI50 (IGROV-1): > 100 µM (inactive)
GI50 (RXF 393): > 100 µM (inactive)
GI50 (SK-MEL-28): > 100 µM (inactive)
GI50 (M19-MEL): > 100 µM (inactive)
GI50 (HOP-92): > 100 µM (inactive)
GI50 (SK-MEL-5): > 100 µM (inactive)
GI50 (DMS-114): > 100 µM (inactive)
GI50 (HOP-18): > 100 µM (inactive)
GI50 (HL-60): > 100 µM (inactive)
GI50 (A498): > 100 µM (inactive)
GI50 (UO-31): > 100 µM (inactive)
GI50 (SNB-75): 69.3 µM (inactive)
GI50 (SK-OV-3): > 100 µM (inactive)
GI50 (CCRF-CEM): > 100 µM (inactive)
GI50 (DLD-1): > 100 µM (inactive)
GI50 (EKVX): > 100 µM (inactive)
GI50 (NCI-H226): > 100 µM (inactive)
GI50 (SW-620): > 100 µM (inactive)
GI50 (SNB-19): > 100 µM (inactive)
GI50 (OVCAR-4): > 100 µM (inactive)
GI50 (SF-268): > 100 µM (inactive)
GI50 (SF-295): > 100 µM (inactive)
GI50 (K562): > 100 µM (inactive)
GI50 (HCT-116): > 100 µM (inactive)
GI50 (NCI-H23): > 100 µM (inactive)
GI50 (CAKI-1): > 100 µM (inactive)
GI50 (KM-20L2): > 100 µM (inactive)
GI50 (OVCAR-3): > 100 µM (inactive)
GI50 (HCT-15): > 100 µM
GI50 (RPMI-8226): > 100 µM (inactive)
GI50 (NCI-H460): > 100 µM (inactive)
GI50 (SN12C): > 100 µM (inactive)
GI50 (SK-MEL-2): > 100 µM (inactive)
GI50 (KM12): > 100 µM (inactive)
GI50 (SNB-78): > 100 µM (inactive)
GI50 (Malme-3M): > 100 µM (inactive)
GI50 (M14): > 100 µM (inactive)
GI50 (786-0): > 100 µM (inactive)
GI50 (TK-10): > 100 µM (inactive)
GI50 (COLO 205): > 100 µM (inactive)
GI50 (OVCAR-8): > 100 µM (inactive)
GI50 (A549): > 100 µM (inactive)
GI50 (ACHN): > 100 µM (inactive)
GI50 (MOLT-4): > 100 µM (inactive)
GI50 (XF498): > 100 µM (inactive)

NCCCNCCCCN(CCCN)/[N+]([O-])=N\O
GI50 (DMS-273): > 100 µM (inactive)
GI50 (HT-29): > 100 µM (inactive)
GI50 (SF-539): > 100 µM (inactive)
GI50 (HCC 2998): > 100 µM (inactive)
GI50 (LXFL 529): > 100 µM (inactive)
GI50 (SR): 28.6 µM (inactive)
GI50 (IGROV-1): > 100 µM (inactive)
GI50 (RXF 393): > 100 µM (inactive)
GI50 (SK-MEL-28): > 100 µM (inactive)
GI50 (M19-MEL): > 100 µM (inactive)
GI50 (HOP-92): > 100 µM (inactive)
GI50 (SK-MEL-5): > 100 µM (inactive)
GI50 (DMS-114): > 100 µM (inactive)
GI50 (HOP-18): > 100 µM (inactive)
GI50 (HL-60): > 100 µM (inactive)
GI50 (UO-31): > 100 µM (inactive)
GI50 (SNB-75): 89.3 µM (inactive)
GI50 (CCRF-CEM): > 100 µM (inactive)
GI50 (DLD-1): > 100 µM (inactive)
GI50 (EKVX): > 100 µM (inactive)
GI50 (NCI-H226): > 100 µM (inactive)
GI50 (SW-620): > 100 µM (inactive)
GI50 (SNB-19): > 100 µM (inactive)
GI50 (OVCAR-4): > 100 µM (inactive)
GI50 (SF-268): > 100 µM (inactive)
GI50 (UACC-62): > 100 µM (inactive)
GI50 (SF-295): > 100 µM (inactive)
GI50 (K562): > 100 µM (inactive)
GI50 (HCT-116): > 100 µM (inactive)
GI50 (NCI-H23): > 100 µM (inactive)
GI50 (UACC-257): > 100 µM (inactive)
GI50 (CAKI-1): > 100 µM (inactive)
GI50 (KM-20L2): > 100 µM (inactive)
GI50 (OVCAR-3): > 100 µM (inactive)
GI50 (HCT-15): > 100 µM
GI50 (RPMI-8226): 29.8 µM (inactive)
GI50 (NCI-H460): > 100 µM (inactive)
GI50 (SN12C): > 100 µM (inactive)
GI50 (SK-MEL-2): > 100 µM (inactive)
GI50 (KM12): > 100 µM (inactive)
GI50 (SNB-78): > 100 µM (inactive)
GI50 (Malme-3M): > 100 µM (inactive)
GI50 (M14): > 100 µM (inactive)
GI50 (786-0): > 100 µM (inactive)
GI50 (COLO 205): > 100 µM (inactive)
GI50 (OVCAR-8): > 100 µM (inactive)
GI50 (A549): > 100 µM (inactive)
GI50 (HOP-62): > 100 µM (inactive)
GI50 (ACHN): > 100 µM (inactive)
GI50 (MOLT-4): > 100 µM (inactive)
GI50 (RXF 631): > 100 µM (inactive)
GI50 (OVCAR-5): > 100 µM (inactive)
